Assay results published in patent US20260337153A1, “IONIZABLE AMINE LIPIDS” (Intellia Therapeutics, Inc., priority 2023, published 2026).
Values joined by “and” are separate entries in the source; they are usually repeats but may differ in a detail not shown here. Identical values can stand only once. Like-named read-outs stand apart in the source and are kept apart here.

Columns and labels:
Format in all cases: physicochemical
[1] = LNP average particle size and polydispersity by dynamic light scattering; details: sgRNA:mRNA 1:2
Procedure: Dynamic Light Scattering (“DLS”) is used to characterize the polydispersity index (“pdi” or “PDI”) and size of the LNPs of the present disclosure. DLS measures the scattering of light that results from subjecting a sample to a light source. PDI, as determined from DLS measurements, represents the distribution of particle size (around the mean particle size) in a population, with a perfectly uniform population having a PDI of zero.
(§1) LNP compositions are analyzed for average particle size, polydispersity index (pdi), total RNA content, encapsulation efficiency of RNA, and zeta potential. LNP compositions may be further characterized by lipid analysis, AF4-MALS, NTA, and/or cryo-EM.
Average particle size and polydispersity are measured by dynamic light scattering (DLS) using a Malvern Zetasizer DLS instrument. LNP samples were diluted with PBS buffer prior to being measured by DLS. Z-average diameter (“Z-avg”) which is an intensity-based measurement of average particle size was reported along with number average diameter (“number mean”) and PDI. A Malvern Zetasizer instrument is also used to measure the zeta potential of the LNP. Samples are diluted 1:17 (50 μL into 800 μL) in 0.1×PBS, pH 7.4 prior to measurement.
(§2) In vivo editing efficiency for materials delivered with formulations including various amine lipid (or ionizable lipid) compounds in Experiments 1 through 14 as described in Tables 3 and 4 was assessed. Editing was measured using G000534 (SEQ ID NO: 5) which targets the rat TTR gene. Lipids described above were assessed for efficacy through in vivo editing experiments. LNPs were formulated at a 1:2 w/w ratio of sgRNA (SEQ ID NO: 5) and Cas9 mRNA (SEQ ID NO: 3). In Experiments 1 through 13, lipid components of the LNP are formulated in a molar ratio of 50% ionizable lipid, 38% cholesterol, 9% DSPC, and 3% PEG2K-DMG. In Experiment 14, lipid components of the LNP are formulated in a molar ratio of 50% ionizable lipid, 38% cholesterol, 9% DSPC, and 3% C13 Ether. The final LNPs used in different in vivo editing experiments were characterized to determine the encapsulation efficiency (% E), polydispersity index (PDI), and average particle size (Z-avg and number mean) according to the analytical methods provided above. The pKa values of each of the following ionizable lipids were also measured to be in the range of about 5.8 to about 7.6.
(§3) In vivo editing efficiency for materials delivered with formulations including various combinations of amine lipid (or ionizable lipid) and PEG lipid compounds was assessed as described in Tables 5 and 6. Editing was measured using G000534 (SEQ ID NO: 5) which targets the rat TTR gene. Lipids described above were assessed for efficacy through in vivo editing experiments. LNPs were formulated at a 1:2 w/w ratio of sgRNA (SEQ ID NO: 5) and Cas9 mRNA (SEQ ID NO:3). Lipid components of the LNP are formulated in a molar ratio of 50% ionizable lipid, 38% cholesterol, 9% DSPC, and 3% of various PEG lipids (e.g., PEG2K-DMG, C13 Ether, C14 Ether). The final LNPs used in different in vivo editing experiments were characterized to determine the encapsulation efficiency (% E), polydispersity index (PDI), and average particle size (Z-avg and number mean) according to the analytical methods provided above. The pKa values of each of the following ionizable lipids were also measured to be in the range of about 5.8 to about 7.6.
In vivo editing efficiency for materials delivered with formulations including various amine lipid (or ionizable lipid) compounds as described in Tables 7 and 8 was assessed. Editing was measured using G000534 (SEQ ID NO: 5) which targets the rat TTR gene. Lipids described above were assessed for efficacy through in vivo editing experiments. LNPs were formulated at a 1:2 w/w ratio of sgRNA (SEQ ID NO: 5) and Cas9 mRNA (SEQ ID NO: 3). Lipid components of the LNP were formulated in a molar ratio of 50% ionizable lipid, 38% cholesterol, 9% DSPC, and 3% C13 Ether. […]

[2] = LNP encapsulation efficiency of RNA (Ribogreen fluorescence assay); details: sgRNA:mRNA 1:2
Procedure: as §1
Encapsulation efficiency is calculated as (Total RNA−Free RNA)/Total RNA. A fluorescence-based assay (Ribogreen®, ThermoFisher Scientific) is used to determine total RNA concentration and free RNA. LNP samples are diluted appropriately with 1×TE buffer containing 0.2% Triton-X 100 to determine total RNA or 1×TE buffer to determine free RNA. Standard curves are prepared by utilizing the starting RNA solution used to make the compositions and diluted in 1×TE buffer+/−0.2% Triton-X 100. Diluted RiboGreen® dye (according to the manufacturer's instructions) is then added to each of the standards and samples and allowed to incubate for approximately 10 minutes at room temperature, in the absence of light. A SpectraMax M5 Microplate Reader (Molecular Devices) is used to read the samples with excitation, auto cutoff and emission wavelengths set to 488 nm, 515 nm, and 525 nm respectively. Total RNA and free RNA are determined from the appropriate standard curves. Alternatively, the total RNA concentration can be determined by a reverse-phase ion-pairing (RP-IP) HPLC method. Triton X-100 is used to disrupt the LNPs, releasing the RNA. The RNA is then separated from the lipid components chromatographically by RP-IP HPLC and quantified against a standard curve using UV absorbance at 260 nm.
as §2, §3
In vivo editing efficiency for materials delivered with formulations including various amine lipid (or ionizable lipid) compounds as described in Tables 7 and 8 was assessed. […]

[3] = pKa of unformulated amine lipid by TNS fluorescence; details: sodium phosphate buffer, unformulated amine lipid, TNS, read-out: Lipid pKa
Procedure: The pKa of each amine lipid was determined according to the method in Jayaraman, et al. (Angew Chem Int Ed Engl 51(34), 2012, 8529-8533) with the following adaptations. The pKa was determined for unformulated amine lipid in ethanol. Lipid stock solutions (2.94 mM) were diluted into Sodium Phosphate Buffers (0.1 M, Boston Bioproducts) of different pH (pH-range: 4.5-9.0) yielding a final lipid concentration of approx. 100 μM. The test samples were supplemented with TNS {6-(p-Toluidino)-2-naphthalenesulfonic acid sodium salt}, incubated and the fluorescence intensity was measured using excitation and emission wavelengths of 321 nm and 448 nm, respectively. The recorded data were normalized and the respective pKa values were derived from sigmoidal fitting.

[4] = Table 3, Experiment 14, LNP with 3% C13 Ether
[5] = Table 3, Experiments 1-13, LNP 50% ionizable lipid, 38% cholesterol, 9% DSPC, 3% PEG2K-DMG
[6] = additional ionizable lipids (53-61)

Row | Number mean [1, 4] | PDI [1, 4] | Z-avg [1, 4] | % E (encapsulation efficiency) [2, 4] | pKa ([3]; Table 2) | Number mean [1, 5] | PDI [1, 5] | Z-avg [1, 5] | % E (encapsulation efficiency) [2, 5] | pKa [3, 6] | SMILES
1 |  |  |  |  |  | 65 nm | 0.05 | 77 nm | 84% | 6.6 | CCCCCCCCCOC(=O)CCCCCCCN(CCO)CCCCCCCC(=O)OC(CCCCCCCC)CCCCCCCC [Compound 55]
2 |  |  |  |  |  | 69 nm and 84 nm and 77 nm |  | 91 nm and 92 nm and 94 nm | 87% and 90% | 6.8 | CCCCC/C=C\C/C=C\CCCCCCCC(=O)OCC(COC(=O)CCCC(=O)OC(CCCCCCCC)CCCCCCCC)COC(=O)NCCN(CC)CC (centres unmarked) [Compound 58]
3 |  |  |  |  |  | 39 nm | 0.16 | 74 nm | 100% | 7.4 | CCCCCCCCC(CCCCCCCC)OC(=O)CCCCCCC(=O)OCC(COC(=O)CCCCCCC(=O)OC(CCCCCCCC)CCCCCCCC)COC(=O)NCCCN(CC)CC [Compound 61]
4 |  |  |  |  |  | 74 nm and 80 nm | 0.04 and 0.03 | 90 nm and 86 nm | 95% and 97% | 6.1 | CCCCC/C=C\C/C=C\CCCCCCCC(=O)OCC(COC(=O)CCCC(=O)OC(CCCCCCCC)CCCCCCCC)COC(=O)OCCCN(CC)CC (centres unmarked) [Compound 56]
5 |  |  |  |  |  | 75 nm and 80 nm |  | 91 nm and 88 nm | 96% | 6.1 | CCCCC/C=C\C/C=C\CCCCCCCC(=O)OCC(COC(=O)CCCCCC(=O)OC(CCCCCCCC)CCCCCCCC)COC(=O)OCCCN(CC)CC (centres unmarked) [Compound 57]

Further lines, the compound ahead of its results:

Row | SMILES | Number mean [1, 4] | PDI [1, 4] | Z-avg [1, 4] | % E (encapsulation efficiency) [2, 4] | pKa ([3]; Table 2) | Number mean [1, 5] | PDI [1, 5] | Z-avg [1, 5] | % E (encapsulation efficiency) [2, 5] | pKa [3, 6]
6 | CCCCCCCCC(CCCCCCCC)OC(=O)CCCC(=O)OCC(COC(=O)CCCC(=O)OC(CCCCCCCC)CCCCCCCC)OC(=O)NCCN(CC)CC [Compound 35, O,O′-(2-(((2-(diethylamino)ethyl)carbamoyl)oxy)propane-1,3-diyl) di(heptadecan-9-yl) diglutarate] | 67 nm | 0.019 | 76 nm | 99% | 6.83 |  |  |  |  | 
7 | CCCCC/C=C\C/C=C\CCCCCCCC(=O)OCC(CCCCC(=O)OC(CCCC)CCCC)COC(=O)OCCCN(CC)CC (centres unmarked) [Compound 14, 2-((((3-(diethylamino)propoxy)carbonyl)oxy)methyl)-7-(nonan-5-yloxy)-7-oxoheptyl (9Z,12Z)-octadeca-9,12-dienoate] |  |  |  |  | 6.27 | 107 nm | 0.01 | 114 nm | 96% | 
8 | CCCCC/C=C\C/C=C\CCCCCCCC(=O)OCC(CCCCCCCCC(=O)OC(CCCCCCCC)CCCCCCCCC)COC(=O)CCC(CCCCCCCC)OC(=O)NCCN(C)CC (centres unmarked) [Compound 24, 3-methyl-15-(9-(octadecan-9-yloxy)-9-oxononyl)-9-octyl-7,12-dioxo-8,13-dioxa-3,6-diazahexadecan-16-yl (9Z,12Z)-octadeca-9,12-dienoate] |  |  |  |  | 6.1 | 60 nm | 0.03 | 67 nm | 98% | 
9 | CCCCC/C=C\C/C=C\CCCCCCCC(=O)OCC(CCCCCCC(=O)OC(CCCCCCCC)CCCCCCCC)COC(=O)OCCCN(CC)CC (centres unmarked) [Compound 16, 2-((((3-(diethylamino)propoxy)carbonyl)oxy)methyl)-9-(heptadecan-9-yloxy)-9-oxononyl (9Z,12Z)-octadeca-9,12-dienoate] |  |  |  |  | 5.98 | 62 nm | 0.03 | 68 nm | 99% | 
10 | CCCCC/C=C\C/C=C\CCCCCCCCC(COC(=O)CCCCCC(=O)OC(CCCCCCCC)CCCCCCCC)COC(=O)NCCN(CC)CC (centres unmarked) [Compound 23, 1-((11Z,14Z)-2-((((2-(diethylamino)ethyl)carbamoyl)oxy)methyl)icosa-11,14-dien-1-yl) 7-(heptadecan-9-yl) heptanedioate] |  |  |  |  | 6.49 | 86 nm and 74 nm | 0.02 | 90 nm and 81 nm | 92% and 95% | 
11 | CCCCC/C=C\C/C=C\CCCCCCCC(=O)OCC(CCCCCCCCC(=O)OC(CCCCCC)CCCCCC)COC(=O)OCCCN(CC)CC (centres unmarked) [Compound 19, 2-((((3-(diethylamino)propoxy)carbonyl)oxy)methyl)-11-oxo-11-(tridecan-7-yloxy)undecyl (9Z,12Z)-octadeca-9,12-dienoate] |  |  |  |  | 6.09 | 66 nm | 0.02 | 71 nm | 99% | 
12 | CCCCC/C=C\C/C=C\CCCCCCCC(=O)OCC(CCCCCCC(=O)OC(CCCC)CCCC)COC(=O)OCCCN(CC)CC (centres unmarked) [Compound 20, 2-((((3-(diethylamino)propoxy)carbonyl)oxy)methyl)-9-(nonan-5-yloxy)-9-oxononyl (9Z,12Z)-octadeca-9,12-dienoate] |  |  |  |  | 6.19 | 68 nm | 0.05 | 84 nm | 98% | 
13 | CCCCCCCCC(CCCCCCCC)OC(=O)CCCC(=O)OCC(COC(=O)CCCC(=O)OC(CCCCCCCC)CCCCCCCC)COC(=O)NCCN1CCCCC1 [Compound 28, di(heptadecan-9-yl) O,O′-(2-((((2-(piperidin-1-yl)ethyl)carbamoyl)oxy)methyl)propane-1,3-diyl) diglutarate] |  |  |  |  | 6.2 | 60 nm | 0.022 | 65 nm | 99% | 
14 | CCCCCCC(CCCCCC)OC(=O)CCCC(=O)OCC(COC(=O)CCCC(=O)OC(CCCCCC)CCCCCC)COC(=O)NCCN(CC)CC [Compound 37, O,O′-(2-((((2-(diethylamino)ethyl)carbamoyl)oxy)methyl)propane-1,3-diyl) di(tridecan-7-yl) diglutarate] |  |  |  |  | 6.66 | 71 nm | 0.014 | 78 nm | 99% | 
